Test results as given in US12137885B2, “Bodily fluid collection device” (SENJU PHARMACEUTICAL CO., LTD., priority 2020, dated 2024).
Where a name gives a salt, the structure may show the parent alone.

Assay: Timolol concentration of the aqueous humor after ophthalmic administration, collected with the bodily fluid-collecting device (LC/MS/MS)
Format: in vivo
Conditions: rabbit; single 40 μl ophthalmic dose of 0.5% timolol maleate sustained ophthalmic solution; aqueous humor 4 hours after administration; Method 1 (0.25, 0.5, 1, 2, 4 h) vs Method 2 (4 h only); FIG. 6
Method: Using a micropipette, a 0.5% timolol maleate sustained ophthalmic solution (produced by Santen Pharmaceutical Co., Ltd., Timoptol (registered trademark) XE ophthalmic solution 0.5%) was administered as a single dose of 40 μl near the upper portion of the bulbar conjunctiva of rabbit eyeballs retained using a retention can. The administration was performed on both eyes. A rabbit was retained using a retention can. 30 μl of a 10-fold diluted solution (dilution medium: physiological saline) of a 0.4% oxybuprocaine hydrochloride ophthalmic solution (produced by Santen Pharmaceutical Co., Ltd., Benoxil (registered trademark) ophthalmic solution 0.4%) was ophthalmically administered to the retained rabbit, and local anesthesia was applied. After gently stimulating the cornea with the tip of tweezers and confirming the disappearance of the corneal reflex, a lid retractor was attached. In the Example, a device with a 20-μl capillary attached to a 34 G injection needle was used as the bodily fluid-collecting device. After retaining the eyeball by sandwiching the upper bulbar conjunctiva with tweezers, the needle tip of the bodily fluid-collecting device was inserted into the anterior chamber via the cornea by two-step puncture while checking the curved surface of the cornea. […] After deproteinizing each sample, the timolol concentration of the aqueous humor was measured using the LC/MS/MS method.

timolol concentration of the aqueous humor at the final collection (Method 1, repeated collection from the same eye) compared with one-point collection (Method 2): equivalent
SMILES: CC(C)(C)NC[C@H](O)COc1nsnc1N1CCOCC1 [timolol, timolol maleate]
